This note sets out measurements from the supplement of paper PMC10307832.

What all share (assay): relative viability (nuclei count vs DMSO), 5 days (fraction); higher = more cells survive
Compound in assay [1]: CCN1CCN(c2ccc(Nc3cc(N(C)C(=O)Nc4c(Cl)c(OC)cc(OC)c4Cl)ncn3)cc2)CC1 [BGJ398] + COc1cccc2cc(-c3nc([C@H]4CC[C@H](C(=O)O)CC4)n4ncnc(N)c34)[nH]c12 [OSI-027] (partner 0.5 µM)
In a few lines:
(§1)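 Medians of duplicate plates are given as relative viability. That measure is the nuclei count in treated wells divided by the count in vehicle wells. Counts were taken on 4× images of lung cancer cell lines in 1536-well plates, 5 days after pin-tool dosing the day after seeding with one drug alone or a fixed anchor-drug dose plus five library-drug doses (not always all listed) in √10 steps.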

Compound in assay [2]: C1=CC2=NC=CN=C2C=C1/C=C/3\C(=O)NC(=O)S3 + CC(C)C[C@H](NC(=O)[C@H](Cc1ccccc1)NC(=O)c1cnccn1)B(O)O [Bortezomib] (partner 0.002 µM)
Put shortly: as §1

Compound in assay [3]: CCN1CCN(c2ccc(Nc3cc(N(C)C(=O)Nc4c(Cl)c(OC)cc(OC)c4Cl)ncn3)cc2)CC1 [BGJ398] + Nc1ncn([C@H]2C[C@H](O)[C@@H](CO)O2)c(=O)n1 [Decitabine] (partner 2 µM)
In a few lines: as §1

Compound in assay [4]: C1=CC2=NC=CN=C2C=C1/C=C/3\C(=O)NC(=O)S3 + O=C(CCCCCCC(=O)Nc1ccccc1)NO [Vorinostat] (partner 1 µM)
Put shortly: as §1

Regarding UMC-11, the relative viability in assay [1] (first compound 0.01 µM) came to 0.494; in assay [1] (first compound 0.03162 µM), 0.449; in assay [1] (first compound 0.1 µM), 0.53; in assay [1] (first compound 0.3162 µM), 0.411; in assay [1] (first compound 1 µM) it was 0.429; in assay [2] (first compound 0.02 µM), 0.869. Moreover, the relative viability in assay [2] (first compound 0.06325 µM) was found to be 0.965; in assay [2] (first compound 0.2 µM) it was 0.523; in assay [2] (first compound 0.6325 µM) it was 0.591; in assay [2] (first compound 2 µM) it was 0.997; in assay [3] (first compound 0.01 µM), 0.504; in assay [3] (first compound 0.03162 µM), 0.571. Further, the relative viability in assay [3] (first compound 0.1 µM) turned out to be 0.637; in assay [3] (first compound 0.3162 µM), 0.652; in assay [3] (first compound 1 µM), 0.365; in assay [4] (first compound 0.02 µM), 0.373; in assay [4] (first compound 0.06325 µM) it was 0.345; in assay [4] (first compound 0.2 µM), 0.485. The relative viability was 0.316 in assay [4] (first compound 0.6325 µM) and 0.394 in assay [4] (first compound 2 µM).
